Experimental data from US20020183279A1, “Pharmaceutical composition containing viscoelastic substance and medication” (Koichiro TANAKA, priority 2001, published 2002).

Tested on: Bacillus substilis (ATCC6633)
Experiment: Inhibition circle (penicillin cup) measurement of antimicrobial activity changed by viscoelastic substance
Assay type: cell-based, Bacillus subtilis
Protocol: The activity of an antimicrobial agent changes depending upon a type of viscoelastic substance. Such a change was measured by using Bacillus substilis (ATCC6633 referred to as “B subtilis”) and the following viscoelastic substances: First, B. subtilis (0.1 mL of 1.4×10^8 CFU/ML) was spread on a 4% heart infusion medium. Subsequently, a penicillin cup was placed on the medium, and a test solution was poured in the cup. As test solutions, the following groups were used. 0.1 mL of an antimicrobial agent was added to a penicillin cup. Five concentrations from […] were prepared for each antimicrobial agent; 0.1 mL of a viscoelastic substance was added to a penicillin cup; After 0.1 mL of a viscoelastic substance was added to a penicillin cup and allowed to stand still and then 0.1 mL of 5 or 2.5 μg/mL antimicrobial agent was gently added to the viscoelastic substance layer; and 0.1 mL of a viscoelastic substance and 0.1 mL of 5 or 2.5 μg/mL antimicrobial agent were mixed and added to a penicillin cup. Each group was cultured in an incubator at 35° C. for 24 hours. The size of the inhibition circle of B. subtilis was measured. Based on the measurement results of the single antimicrobial agent group, a curve showing the size of inhibition circle versus the antimicrobial agent concentration (referred to as a standard curve) was obtained with respect to individual antimicrobial agents.

## CCn1cc(C(=O)O)c(=O)c2cc(F)c(N3CCNCC3)cc21 [NFLX, norfloxacin]
Layered group: NFLX layered on HL, OP or VC
  activity of the antimicrobial agent compared to the standard curve: lower than the standard
Layered group: NFLX layered on VC
  antimicrobial activity, ranking among viscoelastic substances: lowest
Mixture group: NFLX mixed with HL, OP or VC, FIG. 5
  bacterial proliferation suppression activity compared to the standard curve: lower than values of the standard curve but not so significant
